Activity calls are given as the source filed them. The calls are words filed in the database; no cut-off is given here.
How the values were obtained:
Acetylcholinesterase [1] = target: T1, Acetylcholinesterase (Homo sapiens, UniProt P22303); assay: Inhibition of recombinant human AChE expressed in HEK293 cells using acetylthiocholine iodide as substrate pretreated for 5 mins followed by substrate addition and measured for 5 mins by Ellman's method
Homo sapiens = organism: Homo sapiens; assay: Selectivity index, ratio of IC50 for human serum BuChE to IC50 for recombinant human AChE expressed in HEK293 cells; assay type: cell-based
Cholinesterase = Cholinesterase (Homo sapiens, UniProt P06276); assay: Inhibition of human serum BuChE using butyrylthiocholine as substrate pretreated for 5 mins followed by substrate addition and measured for 5 mins by Ellman's method
Acetylcholinesterase [2] = target: T1, Acetylcholinesterase; assay: Inhibition of recombinant human AChE expressed in HEK293 cells using varying levels of acetylthiocholine iodide as substrate by Lineweaver-burk plot analysis
[3] = target: T2, Amine oxidase [flavin-containing] B (Homo sapiens, UniProt P27338); assay: biochemical; assay type: cell-based
T2 sequence (P27338 whole entry): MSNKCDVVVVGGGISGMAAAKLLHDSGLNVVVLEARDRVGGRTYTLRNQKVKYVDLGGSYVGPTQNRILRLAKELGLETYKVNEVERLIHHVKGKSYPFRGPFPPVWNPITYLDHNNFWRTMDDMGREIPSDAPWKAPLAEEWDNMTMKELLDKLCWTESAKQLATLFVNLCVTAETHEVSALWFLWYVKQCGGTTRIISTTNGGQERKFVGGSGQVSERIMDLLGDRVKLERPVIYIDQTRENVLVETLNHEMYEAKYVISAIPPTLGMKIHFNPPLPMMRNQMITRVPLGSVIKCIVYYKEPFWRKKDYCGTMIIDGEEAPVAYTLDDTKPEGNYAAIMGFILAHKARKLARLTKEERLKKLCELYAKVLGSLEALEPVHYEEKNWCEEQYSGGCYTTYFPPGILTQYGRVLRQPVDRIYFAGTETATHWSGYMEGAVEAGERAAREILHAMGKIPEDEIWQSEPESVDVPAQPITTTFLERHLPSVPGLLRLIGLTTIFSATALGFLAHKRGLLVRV
Description: Inhibition of recombinant human MAO-B expressed in baculovirus infected BTI insect cells using p-tyramine as substrate pretreated for 15 mins followed by substrate addition by horse-radish peroxidase/amplex red-based fluorescence method

[4] = Antioxidant activity assessed as trolox equivalent of AAPH-induced radical scavenging activity pretreated for 15 mins followed by APPH challenge measured every minute for 80 mins by ORAC-FL assay; assay type: functional
[5] = target: Sigma non-opioid intracellular receptor 1 (Cavia porcellus, UniProt Q60492); assay: Displacement of (+)-[3H]pentazocine from guinea pig brain membrane sigma1 receptor by liquid scintillation counting method
[6] = Selectivity ratio of Ki for displacement of [3H]DTG from sigma2 receptor in rat liver membranes to Ki for displacement of (+)-[3H]pentazocine from guinea pig brain membrane sigma1 receptor; assay type: cell membranes
in vitro = details: PAMPA, pH 7.4
Description: Permeability of the compound in pH 7.4 PBS by PAMPA-BBB assay

[7] = target: T3, Amine oxidase [flavin-containing] A (Homo sapiens, UniProt P21397); assay: Inhibition of recombinant human MAO-A expressed in baculovirus infected BTI insect cells using p-tyramine as substrate pretreated for 15 mins followed by substrate addition by horse-radish peroxidase/amplex red-based fluorescence method
T3 sequence (P21397 whole entry): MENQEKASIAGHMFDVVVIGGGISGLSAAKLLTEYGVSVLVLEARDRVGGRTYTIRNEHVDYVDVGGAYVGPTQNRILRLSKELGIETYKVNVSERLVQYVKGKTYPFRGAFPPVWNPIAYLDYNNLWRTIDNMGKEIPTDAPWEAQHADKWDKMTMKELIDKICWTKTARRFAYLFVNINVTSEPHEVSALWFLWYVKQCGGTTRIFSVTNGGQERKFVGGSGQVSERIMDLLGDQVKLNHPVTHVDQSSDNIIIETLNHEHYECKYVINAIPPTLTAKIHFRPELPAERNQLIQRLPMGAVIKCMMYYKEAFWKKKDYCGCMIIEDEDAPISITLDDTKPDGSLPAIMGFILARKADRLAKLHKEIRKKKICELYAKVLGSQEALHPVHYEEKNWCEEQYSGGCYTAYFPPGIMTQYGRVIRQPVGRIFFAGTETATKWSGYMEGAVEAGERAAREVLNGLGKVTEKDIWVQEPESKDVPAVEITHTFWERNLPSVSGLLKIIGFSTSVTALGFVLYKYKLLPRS

[8] = target: T4, Sigma intracellular receptor 2 (Rattus norvegicus, UniProt Q5U3Y7); assay: Displacement of [3H]DTG from sigma2 receptor in rat liver membranes by liquid scintillation counting method; assay type: cell membranes, Membrane
T4 sequence (Q5U3Y7 whole entry): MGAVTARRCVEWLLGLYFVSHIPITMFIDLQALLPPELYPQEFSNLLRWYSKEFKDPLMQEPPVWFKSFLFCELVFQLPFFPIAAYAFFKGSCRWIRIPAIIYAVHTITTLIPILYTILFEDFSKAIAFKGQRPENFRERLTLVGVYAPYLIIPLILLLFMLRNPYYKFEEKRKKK

[9] = target: T5, Polyunsaturated fatty acid 5-lipoxygenase (Homo sapiens, UniProt P09917); assay: Inhibition of human 5-lipoxygenase using arachidonic acid as substrate pretreated for 10 mins followed by substrate and ATP addition and measured after 20 mins by H2DCFDA probe based fluorescence assay
T5 sequence (P09917 whole entry): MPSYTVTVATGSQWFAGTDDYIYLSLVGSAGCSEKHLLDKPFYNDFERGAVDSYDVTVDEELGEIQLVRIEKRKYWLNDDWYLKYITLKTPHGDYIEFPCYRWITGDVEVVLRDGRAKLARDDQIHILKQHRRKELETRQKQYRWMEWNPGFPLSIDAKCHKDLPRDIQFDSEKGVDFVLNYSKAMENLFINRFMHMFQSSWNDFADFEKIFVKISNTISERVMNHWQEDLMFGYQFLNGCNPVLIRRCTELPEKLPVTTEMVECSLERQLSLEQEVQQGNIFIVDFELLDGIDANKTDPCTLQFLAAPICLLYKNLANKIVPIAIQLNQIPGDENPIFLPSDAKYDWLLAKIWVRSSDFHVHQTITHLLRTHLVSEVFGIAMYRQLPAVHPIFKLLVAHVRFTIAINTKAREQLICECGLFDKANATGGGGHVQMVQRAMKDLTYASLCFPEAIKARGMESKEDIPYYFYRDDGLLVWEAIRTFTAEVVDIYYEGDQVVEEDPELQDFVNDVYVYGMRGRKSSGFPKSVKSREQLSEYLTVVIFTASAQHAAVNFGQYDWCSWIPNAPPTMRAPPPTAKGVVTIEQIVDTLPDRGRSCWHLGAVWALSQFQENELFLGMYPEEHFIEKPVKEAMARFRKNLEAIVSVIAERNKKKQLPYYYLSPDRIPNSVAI

[10] = Antioxidant activity assessed as trolox equivalent of AAPH-induced radical scavenging activity at 10 uM pretreated for 15 mins followed by APPH challenge measured every minute for 80 mins by ORAC-FL assay; assay type: functional
[11] = target: T6, Polyunsaturated fatty acid 5-lipoxygenase (Homo sapiens) (UniProt P09917); assay: Inhibition of human 5-lipoxygenase at 10 uM using arachidonic acid as substrate pretreated for 10 mins followed by substrate and ATP addition and measured after 20 mins by […] probe based fluorescence assay relative to control
T6 sequence (whole entry): T5 sequence (P09917 whole entry)

Chain of Sigma non-opioid intracellular receptor 1 (Q60492 whole entry): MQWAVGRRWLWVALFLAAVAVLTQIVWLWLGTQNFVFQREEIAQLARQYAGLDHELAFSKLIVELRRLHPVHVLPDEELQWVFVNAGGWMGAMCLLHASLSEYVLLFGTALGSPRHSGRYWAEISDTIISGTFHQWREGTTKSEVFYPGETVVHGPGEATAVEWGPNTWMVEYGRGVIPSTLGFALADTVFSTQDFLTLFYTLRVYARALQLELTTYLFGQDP
T1 sequence (P22303 whole entry): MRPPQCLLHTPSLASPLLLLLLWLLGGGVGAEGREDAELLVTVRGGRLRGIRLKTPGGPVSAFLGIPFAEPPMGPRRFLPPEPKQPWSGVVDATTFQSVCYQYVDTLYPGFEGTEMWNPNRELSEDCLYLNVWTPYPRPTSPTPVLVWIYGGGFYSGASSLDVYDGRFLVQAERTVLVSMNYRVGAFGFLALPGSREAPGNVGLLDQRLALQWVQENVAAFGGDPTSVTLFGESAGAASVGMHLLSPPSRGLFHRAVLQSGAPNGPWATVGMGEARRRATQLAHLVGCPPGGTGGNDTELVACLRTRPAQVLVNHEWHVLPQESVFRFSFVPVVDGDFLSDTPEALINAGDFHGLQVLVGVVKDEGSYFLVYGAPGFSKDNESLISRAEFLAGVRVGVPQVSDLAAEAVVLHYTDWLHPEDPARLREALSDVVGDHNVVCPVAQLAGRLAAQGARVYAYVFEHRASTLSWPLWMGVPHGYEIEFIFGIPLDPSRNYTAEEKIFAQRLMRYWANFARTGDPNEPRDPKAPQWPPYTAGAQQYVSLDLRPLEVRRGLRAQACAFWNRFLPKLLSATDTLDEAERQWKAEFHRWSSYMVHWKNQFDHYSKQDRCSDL
Chain of Cholinesterase (P06276 whole entry): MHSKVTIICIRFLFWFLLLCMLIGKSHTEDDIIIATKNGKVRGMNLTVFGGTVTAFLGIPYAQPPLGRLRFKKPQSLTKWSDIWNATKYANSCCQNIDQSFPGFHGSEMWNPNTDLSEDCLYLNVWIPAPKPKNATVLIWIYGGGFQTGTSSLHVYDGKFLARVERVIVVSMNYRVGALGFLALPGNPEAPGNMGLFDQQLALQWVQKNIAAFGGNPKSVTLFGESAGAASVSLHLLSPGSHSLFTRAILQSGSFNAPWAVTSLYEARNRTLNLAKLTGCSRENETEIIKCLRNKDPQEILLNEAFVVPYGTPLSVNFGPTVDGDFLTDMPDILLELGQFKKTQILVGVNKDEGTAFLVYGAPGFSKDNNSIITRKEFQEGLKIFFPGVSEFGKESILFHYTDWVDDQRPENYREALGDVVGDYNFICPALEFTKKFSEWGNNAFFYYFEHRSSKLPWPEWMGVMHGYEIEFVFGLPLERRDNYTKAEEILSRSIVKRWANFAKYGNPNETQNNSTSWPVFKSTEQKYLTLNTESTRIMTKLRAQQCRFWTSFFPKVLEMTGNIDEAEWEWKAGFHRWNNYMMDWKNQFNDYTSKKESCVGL

For COc1cccc2oc(C(=O)NCCC3CCN(Cc4ccccc4)CC3)cc(=O)c12, the IC50 (Acetylcholinesterase [1]) was 0.87 µM, the Ratio IC50 (Homo sapiens) was > 12 and the IC50 (Cholinesterase) was > 10 µM.

In the case of COc1cc2oc(C(=O)OCCC3CCN(Cc4ccccc4)CC3)cc(=O)c2cc1OC, the IC50 (Acetylcholinesterase [1]) is reported as 0.056 µM, the Ki (Acetylcholinesterase [2]) is reported as 0.011 µM and the IC50 (Cholinesterase) is reported as > 10 µM.

Work on O=C(NCCC1CCN(Cc2ccccc2)CC1)c1cc(=O)c2cc(O)c(O)cc2o1 yielded an IC50 [3] of 37.9 µM, an IC50 (Acetylcholinesterase [1]) of 4.13 µM and an Activity (umolequiv/umol) [4] of 1.7. It also gave a Ki [5] of 0.027 µM, a Ratio Ki [6] of 10 and a Papp (in vitro) of 32 nm/s. The Ratio IC50 (Homo sapiens) was > 2.4, the IC50 [7] was 70.5 µM and the Ki [8] was 0.278 µM. For the same compound, the IC50 [9] was 4.2 µM and the IC50 (Cholinesterase) was > 10 µM.

With COc1ccc2oc(C(=O)OCC3CCN(Cc4ccccc4)CC3)cc(=O)c2c1 the IC50 (Acetylcholinesterase [1]) was 7.49 µM, the Papp (in vitro) was 61 nm/s and the Ratio IC50 (Homo sapiens) was > 1.3. For the same compound, the IC50 (Cholinesterase) was > 10 µM.

For COc1ccc2oc(C(=O)NCCCC3CCN(Cc4ccccc4)CC3)cc(=O)c2c1, the IC50 [3] was > 100 µM, the IC50 (Acetylcholinesterase [1]) was 0.37 µM and the Papp (in vitro) was 106 nm/s. For the same compound, the Ratio IC50 (Homo sapiens) was 16, the IC50 [7] was > 100 µM and the IC50 [9] was 82.4 µM. The IC50 (Cholinesterase) was 5.8 µM and the Activity [10] was “inactive”.

With COc1ccc2oc(C(=O)NCCC3CCN(Cc4ccccc4)CC3)cc(=O)c2c1 the inhibition [11] was 33%, the IC50 [3] was > 100 µM and the IC50 (Acetylcholinesterase [1]) was 0.17 µM. For the same compound, the Papp (in vitro) was 100 nm/s, the Ratio IC50 (Homo sapiens) was 38 and the IC50 [7] was > 100 µM. For the same compound, the IC50 [9] was > 100 µM and the IC50 (Cholinesterase) was 6.5 µM.

COc1cc(OC)c2c(=O)cc(C(=O)NCCC3CCN(Cc4ccccc4)CC3)oc2c1 gave an IC50 (Acetylcholinesterase [1]) of 0.32 µM, a Papp (in vitro) of 88 nm/s and a Ratio IC50 (Homo sapiens) of 20. The IC50 (Cholinesterase) was 6.3 µM.

For O=C(NCCC1CCN(Cc2ccccc2)CC1)c1cc(=O)c2c(O)cc(O)cc2o1, the IC50 (Acetylcholinesterase [1]) was 0.58 µM, the Activity (umolequiv/umol) [4] was 0.8 and the Papp (in vitro) was 37 nm/s. For the same compound, the Ratio IC50 (Homo sapiens) was > 17, the IC50 [9] was 95.1 µM and the IC50 (Cholinesterase) was > 10 µM.

With O=C(NCCCC1CCN(Cc2ccccc2)CC1)c1cc(=O)c2cc(O)ccc2o1 the IC50 [3] was > 100 µM, the IC50 (Acetylcholinesterase [1]) was 0.023 µM and the Activity (umolequiv/umol) [4] was 1.3. For the same compound, the Ki [5] was 0.00348 µM, the Ratio Ki [6] was 87 and the Papp (in vitro) was 45 nm/s. The Ratio IC50 (Homo sapiens) was > 435, the IC50 [7] was > 100 µM and the Ki [8] was 0.301 µM. For the same compound, the IC50 [9] was 15.1 µM, the Ki (Acetylcholinesterase [2]) was 0.011 µM and the IC50 (Cholinesterase) was > 10 µM.

For COc1ccc2[nH]c(C(=O)NCCC3CCN(Cc4ccccc4)CC3)cc(=O)c2c1, the inhibition [11] was 31%, the IC50 [3] was > 100 µM and the IC50 (Acetylcholinesterase [1]) was 0.88 µM. It also gave a Ki [5] of 0.0072 µM, a Ratio Ki [6] of 64 and a Papp (in vitro) of 120 nm/s. The Ratio IC50 (Homo sapiens) was > 11, the IC50 [7] was > 100 µM and the Ki [8] was 0.459 µM. The IC50 [9] was > 100 µM, the IC50 (Cholinesterase) was > 10 µM and the Activity [10] was “inactive”.

For COc1cc2oc(C(=O)NCC3CCN(Cc4ccccc4)CC3)cc(=O)c2cc1OC, the inhibition [11] was 45%, the IC50 (Acetylcholinesterase [1]) was 1.46 µM and the Ratio IC50 (Homo sapiens) was > 6.8. For the same compound, the IC50 [9] was > 100 µM and the IC50 (Cholinesterase) was > 10 µM.

— ChEMBL document CHEMBL4270563, “Neurogenic and neuroprotective donepezil-flavonoid hybrids with sigma-1 affinity and inhibition of key enzymes in Alzheimer's disease” (Eur J Med Chem, 2018)
